Assay results: US12391686B2, “Compounds and uses thereof” (Foghorn Therapeutics Inc., priority 2019, dated 2025)

Target: T1, Nanoluciferase-BRD9 fusion protein (3×FLAG-NLuc-BRD9) in SYO-1 cells (Homo sapiens, UniProt Q9H8M2)
T1 construct: expressed in transfected cells; host or cells: SYO-1
T1 sequence (Q9H8M2 1-597): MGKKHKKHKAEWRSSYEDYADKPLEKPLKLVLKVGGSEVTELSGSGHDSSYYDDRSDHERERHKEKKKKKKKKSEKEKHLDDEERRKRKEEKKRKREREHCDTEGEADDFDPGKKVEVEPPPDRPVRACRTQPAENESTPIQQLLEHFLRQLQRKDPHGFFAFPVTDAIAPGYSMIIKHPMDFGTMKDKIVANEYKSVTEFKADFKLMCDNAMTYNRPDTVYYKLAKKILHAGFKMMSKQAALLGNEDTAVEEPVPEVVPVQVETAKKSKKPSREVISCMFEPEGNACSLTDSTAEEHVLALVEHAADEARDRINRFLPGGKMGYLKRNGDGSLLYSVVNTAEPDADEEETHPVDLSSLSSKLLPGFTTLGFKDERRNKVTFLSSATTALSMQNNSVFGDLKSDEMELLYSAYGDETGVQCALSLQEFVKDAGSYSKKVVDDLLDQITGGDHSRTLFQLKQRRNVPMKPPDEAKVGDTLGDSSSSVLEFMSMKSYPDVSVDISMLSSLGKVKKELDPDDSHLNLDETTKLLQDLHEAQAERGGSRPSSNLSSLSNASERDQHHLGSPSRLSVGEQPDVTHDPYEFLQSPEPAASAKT
Assay: SYO1 BRD9 NanoLuc Degradation Assay
Type: cell-based
Conditions: Table 6B; SYO-1 cells expressing 3×FLAG-NLuc-BRD9, 6 hours incubation, 1 μM top dose; read-out: SYO1 BRD9-NanoLuc degradation IC50
Procedure: Procedure: A stable SYO-1 cell line expressing 3×FLAG-NLuc-BRD9 was generated. On day 0 cells were seeded in 30 μL media into each well of 384-well cell culture plates. The seeding density was 8000 cells/well. On day 1, cells were treated with 30 nL DMSO or 30 nL of 3-fold serially DMSO-diluted compounds (10 points in duplicates with 1 μM as final top dose). Subsequently plates were incubated for 6 hours in a standard tissue culture incubator and equilibrated at room temperature for 15 minutes. Nanoluciferase activity was measured by adding 15 μL of freshly prepared Nano-Glo Luciferase Assay Reagent (Promega N1130), shaking the plates for 10 minutes and reading the bioluminescence using an EnVision reader.
Results: The Inhibition % was calculated using the following formula: % Inhibition=100×(LumHC−Lumsample)/(LumHC−LumLC). DMSO treated cells are employed as High Control (HC) and 1 μM of a known BRD9 degrader standard treated cells are employed as Low Control (LC).

| SMILES | DC50 |
| --- | --- |
| COc1cc(-c2cn(C)c(=O)c3cnc(N(C)C)cc23)cc(OC)c1CN1CC(S(=O)(=O)NCCN2CCN(c3ccc4c(c3)C(=O)N(C3CCC(=O)NC3=O)C4=O)CC2)C1 (centres unmarked) [Compound D32] | < 10 nM |
| COc1cc(-c2cn(C)c(=O)c3cnc(N(C)C)cc23)cc(OC)c1CN(C)C12CC(C(=O)NCCCCCOc3cccc4c3C(=O)N(C3CCC(=O)NC3=O)C4=O)(C1)C2 (centres unmarked) [Compound D34] | < 10 nM |
| COc1cc(-c2cn(C)c(=O)c3cnc(N(C)C)cc23)cc(OC)c1CN(C)CC12CC(C(=O)NCCCCCOc3ccc4c(c3)C(=O)N(C3CCC(=O)NC3=O)C4=O)(C1)C2 (centres unmarked) [Compound D38] | < 10 nM |
| COc1cc(-c2cn(C)c(=O)c3cnc(N(C)C)cc23)cc(OC)c1CN(C)C12CC(C(=O)NCCCCCOc3ccc4c(c3)C(=O)N(C3CCC(=O)NC3=O)C4=O)(C1)C2 (centres unmarked) [Compound D40] | < 10 nM |
| COc1cc(-c2cn(C)c(=O)c3cnc(N(C)C)cc23)cc(F)c1CN1CCC(CCN2CCN(c3ccc4c(c3)C(=O)N(C3CCC(=O)NC3=O)C4=O)CC2)CC1 (centres unmarked) [Compound D41] | < 10 nM |
| COc1cc(-c2cn(C)c(=O)c3cnc(N(C)C)cc23)cc(OC)c1CN1CC(CC(=O)N2CCC3(CC2)CC(Oc2ccc4c(c2)C(=O)N(C2CCC(=O)NC2=O)C4=O)C3)C1 (centres unmarked) [Compound D42] | < 10 nM |
| COc1cc(-c2cn(C)c(=O)c3cnc(N(C)C)cc23)cc(OC)c1CN1CC(CCN2CCN(c3ccc4c(c3)C(=O)N(C3CCC(=O)NC3=O)C4=O)CC2)C1 (centres unmarked) [Compound D43] | ≥ 1000 nM |
| COc1cc(-c2cn(C)c(=O)c3cnc(N(C)C)cc23)cc(OC)c1CN1CC(CCCN2CCN(c3ccc4c(c3)C(=O)N(C3CCC(=O)NC3=O)C4=O)CC2)C1 (centres unmarked) [Compound D44] | 10 to 100 nM |
| COc1cc(-c2cn(C)c(=O)c3cnc(N(C)C)cc23)c2c(c1)N(CCCCCCCCOc1ccc3c(c1)C(=O)N(C1CCC(=O)NC1=O)C3=O)CC2 (centres unmarked) [Compound D45] | 100 to 1000 nM |
| COc1cc(-c2cn(C)c(=O)c3cnc(N(C)C)cc23)c2c(c1)N(CCCCCCCCOc1cccc3c1C(=O)N(C1CCC(=O)NC1=O)C3=O)CC2 (centres unmarked) [Compound D47] | 10 to 100 nM |
| COc1cc(-c2cn(C)c(=O)c3cnc(N(C)C)cc23)cnc1CN1CCC(CCN2CCN(c3ccc4c(c3)C(=O)N(C3CCC(=O)NC3=O)C4=O)CC2)CC1 (centres unmarked) [Compound D48] | < 10 nM |
| COc1cc(-c2cn(C)c(=O)c3cnc(N(C)C)cc23)cc(OC)c1CN1CC(CN2CC3(CCN(c4ccc5c(c4)C(=O)N(C4CCC(=O)NC4=O)C5=O)C3)C2)C1 (centres unmarked) [Compound D49] | < 10 nM |
| COc1cc(-c2cn(C)c(=O)c3cnc(N(C)C)cc23)cc(OC)c1CN1CC(CN2CCC3(C2)CN(c2ccc4c(c2)C(=O)N(C2CCC(=O)NC2=O)C4=O)C3)C1 (centres unmarked) [Compound D51] | < 10 nM |
| COc1cc(-c2cn(C)c(=O)c3cnc(N(C)C)cc23)cc(OC)c1CN1CCC(N2CCN(c3ccc4c(c3)C(=O)N(C3CCC(=O)NC3=O)C4=O)CC2)CC1 (centres unmarked) [Compound D52] | < 10 nM |
| COc1cc(-c2cn(C)c(=O)c3cnc(N(C)C)cc23)cc(OC)c1CN1CCN(C2CCN(c3ccc4c(c3)C(=O)N(C3CCC(=O)NC3=O)C4=O)CC2)CC1 (centres unmarked) [Compound D53] | < 10 nM |
| COc1cc(-c2cn(C)c(=O)c3cnc(N(C)C)cc23)cc(OC)c1CN1CCC(CN2CCC3(CC2)CC(Oc2ccc4c(c2)C(=O)N(C2CCC(=O)NC2=O)C4=O)C3)CC1 (centres unmarked) [Compound D54] | < 10 nM |
| COc1cc(-c2cn(C)c(=O)c3cnc(N(C)C)cc23)cc(OC)c1CN1CCC(CN2CCN(c3ccc4c(c3)C(=O)N(C3CCC(=O)NC3=O)C4=O)CC2)CC1 (centres unmarked) [Compound D57] | < 10 nM |
| COc1cc(-c2cn(C)c(=O)c3cnc(N(C)C)cc23)cc(OC)c1CN1CCC(CN2Cc3cc4c(cc3C2)C(=O)N(C2CCC(=O)NC2=O)C4=O)CC1 (centres unmarked) [Compound D61] | < 10 nM |
| COc1cc(-c2cn(C)c(=O)c3cnc(N(C)C)cc23)cc(OC)c1CN1CC2(CC(N3Cc4cc5c(cc4C3)C(=O)N(C3CCC(=O)NC3=O)C5=O)C2)C1 (centres unmarked) [Compound D63] | < 10 nM |
| COc1cc(-c2cn(C)c(=O)c3cnc(N(C)C)cc23)cc(OC)c1CN1CC2(CCC(N3Cc4cc5c(cc4C3)C(=O)N(C3CCC(=O)NC3=O)C5=O)CC2)C1 (centres unmarked) [Compound D64] | 100 to 1000 nM |
| COc1cc(-c2cn(C)c(=O)c3cnc(N(C)C)cc23)cc(OC)c1CN1CCC2(CC1)CCN(CC#Cc1ccc3c(c1)C(=O)N(C1CCC(=O)NC1=O)C3=O)C2 (centres unmarked) [Compound D65] | < 10 nM |
| COc1cc(-c2cn(C)c(=O)c3cnc(N(C)C)cc23)cc(OC)c1CN1CC(C(=O)N2CC3(CCN(c4ccc5c(c4)C(=O)N(C4CCC(=O)NC4=O)C5=O)C3)C2)C1 (centres unmarked) [Compound D66] | < 10 nM |
| COc1cc(-c2cn(C)c(=O)c3cnc(N(C)C)cc23)cc(OC)c1CN1CC(CN2CCC3(CC2)CC(Oc2ccc4c(c2)C(=O)N(C2CCC(=O)NC2=O)C4=O)C3)C1 (centres unmarked) [Compound D67] | < 10 nM |
| COc1cc(-c2cn(C)c(=O)c3cnc(N(C)C)cc23)cc(OC)c1CN1CC(N2CCN(c3ccc4c(c3)C(=O)N(C3CCC(=O)NC3=O)C4=O)CC2)C1 (centres unmarked) [Compound D69] | < 10 nM |
| COc1cc(-c2cn(C)c(=O)c3cnc(N(C)C)cc23)cc(OC)c1CN1CCN(C(C)COc2cccc3c2C(=O)N(C2CCC(=O)NC2=O)C3=O)CC1 (centres unmarked) [Compound D71] | < 10 nM |

The next lines start with the values.

| DC50 | SMILES |
| --- | --- |
| < 10 nM | COc1cc(-c2cn(C)c(=O)c3cnc(N(C)C)cc23)cc(OC)c1CN1CC2CN(C(=O)CCOCCOc3ccc4c(c3)C(=O)N(C3CCC(=O)NC3=O)C4=O)CCC21 (centres unmarked) [Compound D33] |
| < 10 nM | COc1cc(-c2cn(C)c(=O)c3cnc(N(C)C)cc23)cc(OC)c1CN(C)CC12CC(C(=O)NCCCCCNc3cccc4c3C(=O)N(C3CCC(=O)NC3=O)C4=O)(C1)C2 (centres unmarked) [Compound D35] |
| < 10 nM | COc1cc(-c2cn(C)c(=O)c3cnc(N(C)C)cc23)cc(OC)c1CN(C)CC12CC(C(=O)NCCCCCOc3cccc4c3C(=O)N(C3CCC(=O)NC3=O)C4=O)(C1)C2 (centres unmarked) [Compound D36] |
| < 10 nM | COc1cc(-c2cn(C)c(=O)c3cnc(N(C)C)cc23)cc(OC)c1CN1CC(S(=O)(=O)NCCOCCOCCNc2cccc3c2C(=O)N(C2CCC(=O)NC2=O)C3=O)C1 (centres unmarked) [Compound D37] |
| < 10 nM | COc1cc(-c2cn(C)c(=O)c3cnc(N(C)C)cc23)cc(OC)c1CN(C)CC12CC(C(=O)NCCCCCNc3ccc4c(c3)C(=O)N(C3CCC(=O)NC3=O)C4=O)(C1)C2 (centres unmarked) [Compound D39] |
| < 10 nM | COc1cc(-c2cn(C)c(=O)c3cnc(N(C)C)cc23)c2c(c1)N(CCCCCN1CCC3(CC1)CC(Oc1ccc4c(c1)C(=O)N(C1CCC(=O)NC1=O)C4=O)C3)CC2 (centres unmarked) [Compound D46] |
| < 10 nM | COc1cc(-c2cn(C)c(=O)c3cnc(N(C)C)cc23)cc(OC)c1CN1CC(CN2CCC3(CC2)CN(c2ccc4c(c2)C(=O)N(C2CCC(=O)NC2=O)C4=O)C3)C1 (centres unmarked) [Compound D50] |
| < 10 nM | COc1cc(-c2cn(C)c(=O)c3cnc(N(C)C)cc23)cc(OC)c1CN1CCC(C(=O)N2CCC3(CC2)CC(Oc2ccc4c(c2)C(=O)N(C2CCC(=O)NC2=O)C4=O)C3)CC1 (centres unmarked) [Compound D55] |
| < 10 nM | COc1cc(-c2cn(C)c(=O)c3cnc(N(C)C)cc23)cc(OC)c1CN1CCC2(CC1)CC(N1CCN(c3ccc4c(c3)C(=O)N(C3CCC(=O)NC3=O)C4=O)CC1)C2 (centres unmarked) [Compound D56] |
| < 10 nM | COc1cc(-c2cn(C)c(=O)c3cnc(N(C)C)cc23)cc(OC)c1CN1CCC2(CC1)CC(Oc1ccc3c(c1)C(=O)N(C1CCC(=O)NC1=O)C3=O)C2 (centres unmarked) [Compound D58] |
| < 10 nM | COc1cc(-c2cn(C)c(=O)c3cnc(N(C)C)cc23)cc(OC)c1CN1CCC(CCN2Cc3cc4c(cc3C2)C(=O)N(C2CCC(=O)NC2=O)C4=O)CC1 (centres unmarked) [Compound D59] |
| < 10 nM | COc1cc(-c2cn(C)c(=O)c3cnc(N(C)C)cc23)cc(OC)c1CN1CCC(CCCN2Cc3cc4c(cc3C2)C(=O)N(C2CCC(=O)NC2=O)C4=O)CC1 (centres unmarked) [Compound D62] |
| < 10 nM | COc1cc(-c2cn(C)c(=O)c3cnc(N(C)C)cc23)cc(OC)c1CN1CCC2(CC1)CN(c1ccc3c(c1)C(=O)N(C1CCC(=O)NC1=O)C3=O)C2 (centres unmarked) [Compound D68] |
| < 10 nM | COc1cc(-c2cn(C)c(=O)c3cnc(N(C)C)cc23)cc(OC)c1CN1CCN(c2ccc3c(c2)C(=O)N(C2CCC(=O)NC2=O)C3=O)CC1 (centres unmarked) [Compound D70] |
| < 10 nM | COc1cc(-c2cn(C)c(=O)c3cnc(N(C)C)cc23)cc(OC)c1CN1CC2(C1)CN(C(C)(C)C#Cc1ccc3c(c1)C(=O)N(C1CCC(=O)NC1=O)C3=O)C2 (centres unmarked) [Compound D72] |
| < 10 nM | COc1cc(-c2cn(C)c(=O)c3cnc(N(C)C)cc23)cc(OC)c1CN1CC2(CCN(C(C)(C)C#Cc3ccc4c(c3)C(=O)N(C3CCC(=O)NC3=O)C4=O)CC2)C1 (centres unmarked) [Compound D73] |
